Assay results taken from patent publication EP0355612B1, “Furylthiazole derivatives, processes for the preparation thereof and pharmaceutical composition comprising the same” (FUJISAWA PHARMACEUTICAL CO., LTD., priority 1988, dated 1990).

Assays:
H₂-receptor = biological target: T1, H₂-receptor (Cavia porcellus, UniProt P47747); assay: Test B: H₂-receptor antagonism in isolated guinea-pig atrium; format: cell-based; conditions: test compound 1 x 10⁻⁶ g/ml; histamine (1 x 10⁻⁶ g/ml)-induced increase in beating rate, before and 30 minutes after dosing
T1 construct: from tissue; host or cells: isolated guinea-pig atrial strip
Procedure: Test B (H₂-receptor antagonism in isolated guinea-pig atrium):
The atrial strip isolated from guinea-pig was suspended under an initial tension 0.3 to 0.6 g in an organ bath containing Tyrode solution at 30°C, aerated 95%O₂-5%CO₂ gas. The beating rate and amplitude of contraction of the atrium were recorded by means of a transducer and a polygraph. Histamine (1 x 10⁻⁶ g/ml) was added to the bathing fluid and the increase in beating rate after dosing was measured. Addition of test compounds (1 x 10⁻⁶ g/ml) was made 30 minutes after washing out histamine. Inhibitory effect of test compound was calculated by comparing histamine-induced increases in beating rate before and 30 minutes after dosing with the test compounds.

male Sprague-Dawley rats = assay: Test C: Inhibition of stress ulcer (restraint and water immersion); format: in vivo; conditions: mean area of ulcers vs control animals; test compound 32 mg/kg orally; seven hours immobilized in water bath at 22°C
Procedure: Test C (Inhibition of stress ulcer):
Five male Sprague-Dawley rats, aged 7 weeks and weighing about 200 g were used per group for the study on stress ulcer after the fast for 24 hours. Each animal was immobilized in a restrain cage and immersed to a level of the xiphoid in a water bath kept 22°C. Each of the test compounds (32 mg/kg) suspended in 0.1% methylcellulose solution was administered orally just before the immobilization. Seven hours later, the animals were sacrificed and their stomachs were removed. The stomach was then fixed with 2% formalin. The area of ulcers was measured for each animal, and percentage of inhibition was calculated by comparing the mean area of ulcers (mm²) in the test animals with that in the control animals.

[1] = test system: lumen perfused stomach in anesthetized rats; assay: Test D: Gastric secretion from lumen perfused stomach in anesthetized rats (histamine-stimulated); format: in vivo, Sprague-Dawley rats; conditions: maximal inhibition of acid output; histamine 3 mg/kg/hr intravenous infusion; test compound 1 mg/kg intravenously
Procedure: Test D (Gastric secretion from lumen perfused stomach in anesthetized rats):
Male Sprague-Dawley rats weighing about 250 g were used. Rats were deprived of food but allowed free access to water for 24 hours. The animals were anesthetized with 1.25 g/kg urethane intraperitoneally. The abdomen was opened and the gastric lumen was perfused with saline throughout the experiment. The perfusate was titrated by an autotitrator with 25 mM sodium hydroxide as a titrant. Gastric secretion was stimulated by intravenous infusion with histamine (3 mg/kg/hr). After reaching plateau, test compound (1 mg/kg) was given intravenously. Drug effect was expressed as maximal inhibition by acid output.

T1 sequence (P47747 whole entry): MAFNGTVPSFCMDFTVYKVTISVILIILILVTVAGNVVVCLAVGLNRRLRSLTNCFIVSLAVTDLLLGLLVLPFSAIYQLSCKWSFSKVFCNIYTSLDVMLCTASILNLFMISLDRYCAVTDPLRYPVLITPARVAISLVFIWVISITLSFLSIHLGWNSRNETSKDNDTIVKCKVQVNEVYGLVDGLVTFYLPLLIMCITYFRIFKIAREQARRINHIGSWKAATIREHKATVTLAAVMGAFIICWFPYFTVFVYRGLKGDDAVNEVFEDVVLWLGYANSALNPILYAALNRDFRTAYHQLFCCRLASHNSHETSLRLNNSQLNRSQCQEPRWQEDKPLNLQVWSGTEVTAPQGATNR

Row | H₂ Antagonism (%) (H₂-receptor) | Structure (SMILES) | Inhibition (%) (male Sprague-Dawley rats) | Inhibition (%) [1] [%]
1 | 90.7 | CNC(=NC#N)NCc1ccc(-c2csc(N=C(N)N)n2)o1 [Test Compound (b), 4-[5-(2-Cyano-3-methylguanidino)methylfuran-2-yl]-2-(diaminomethyleneamino)thiazole] |  | 
2 | 89.1 | CNC(=O)NCc1ccc(-c2csc(N=C(N)N)n2)o1 [Test Compound (c)] |  | 
3 |  | NC(N)=Nc1nc(-c2ccc(CC(N)=NS(N)(=O)=O)o2)cs1 [Test Compound (d), 4-[5-(2-Amino-2-aminosulfonyliminoethyl)furan-2-yl]-2-(diaminomethyleneamino)thiazole] | 86.6 | 99
